Reference: patent US20250136634A1, “CAP ANALOG AND USE THEREOF” (SHANGHAI HONGENE BIOTECH CORPORATION, priority 2021, published 2025)

Columns and labels:
[1] = target: T7 RNA polymerase (Escherichia phage T7, UniProt P00573); assay: Capping efficiency of mRNA from T7 in vitro transcription, RNaseH cleavage and LC-MS (Example 2); assay type: biochemical; details: Example 2, T7 RNA polymerase IVT at 37° C. for 2 hs
Text: (5) Treatment with Antarctic Phosphatase:

[2] = target: T1, RIG-I (Homo sapiens, UniProt O95786); assay: Binding ability of mRNA to RIG-I, RNA co-immunoprecipitation and qPCR in Hela cells; details: 2 ug mRNA/well, cells collected after 24 hours, relative to ^m7GpppApG cap, mean±SD
T1 construct: endogenous in cells; host or cells: Hela cells (ATCC CCL-2)
T1 sequence (O95786 1-925): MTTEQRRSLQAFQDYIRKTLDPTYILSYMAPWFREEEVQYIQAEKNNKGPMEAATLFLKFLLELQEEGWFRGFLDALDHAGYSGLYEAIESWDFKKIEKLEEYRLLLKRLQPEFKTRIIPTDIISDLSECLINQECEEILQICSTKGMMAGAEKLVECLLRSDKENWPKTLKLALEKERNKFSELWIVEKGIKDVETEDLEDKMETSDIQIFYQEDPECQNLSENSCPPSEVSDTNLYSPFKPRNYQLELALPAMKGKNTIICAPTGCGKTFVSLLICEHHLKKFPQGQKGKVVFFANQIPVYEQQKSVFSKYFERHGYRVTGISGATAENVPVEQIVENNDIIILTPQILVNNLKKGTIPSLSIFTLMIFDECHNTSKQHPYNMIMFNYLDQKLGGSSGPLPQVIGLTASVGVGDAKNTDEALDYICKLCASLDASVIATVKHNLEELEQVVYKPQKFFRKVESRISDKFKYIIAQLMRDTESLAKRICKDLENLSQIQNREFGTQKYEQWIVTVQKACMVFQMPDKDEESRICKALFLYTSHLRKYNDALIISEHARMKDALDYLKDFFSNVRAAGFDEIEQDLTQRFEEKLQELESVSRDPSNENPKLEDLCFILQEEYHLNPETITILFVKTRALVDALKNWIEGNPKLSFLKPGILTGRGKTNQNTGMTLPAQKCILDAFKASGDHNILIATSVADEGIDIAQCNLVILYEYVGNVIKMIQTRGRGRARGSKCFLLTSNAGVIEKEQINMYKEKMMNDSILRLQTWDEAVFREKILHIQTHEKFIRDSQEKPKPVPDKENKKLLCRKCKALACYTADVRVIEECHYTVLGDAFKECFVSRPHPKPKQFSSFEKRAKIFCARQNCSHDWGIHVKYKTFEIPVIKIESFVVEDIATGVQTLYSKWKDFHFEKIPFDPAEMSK
Protocol: In this example, Hela cells (ATCC CCL-2) were transfected with luciferase mRNAs (Gaussia luciferase) comprising various initial cap structures (the initial cap nucleotide structures comprised are: ^m7GpppApG, ^m7GpppA2′Ome pG, ^m7G3′OmepppA2′O-ethylpG, ^m7G2′OmepppA2′O-ethylpG, ^m7G3′Omeppp A2′O-MOEpG, ^m7G2′O-mepppA2′O-MOEpG, ^m7Gppp(N6-methyladenine)2′O-MOEpG, ^m7G2′OmepppC2′O-ethylpC, ^m7G3′OmepppA2′O-MOEpU), and collected after 24 hours. The intracellular proteins RIG-I and IFIT1 were co-precipitated with the RNAs to which they bound by RNA co-immunoprecipation. The mRNAs were subjected to reverse transcription and real-time quantitative PCR, and the relative abundance of the mRNAs is proportional to their RIG-I and IFIT1 binding ability.
(§1) Hela cells were seeded at a cell density of 4×10^5/well in 6-well plates, and transfected with mRNA at 2 ug mRNA/well when the cell density reached about 80% using Lipofectamine MessengerMAX Transfection Reagent (Invitrogen) according to the transfection steps in the instruction. The cells were collected after 24 hours, and incubated at RT for 10 minutes after the addition of fixative solution. The reaction was then terminated by adding glycine at a suitable concentration, and the cells were collected by centrifugation. Appropriate amount of lysis solution was added to the cells. The mixture was incubated on ice for 30 minutes and centrifuged to collect supernatant. Appropriate amount of (2-4 ng) anti-RIG-I and IFIT1 antibodies (Abcam) were added to the supernatant, and the mixture was incubated overnight at 4° C. on a shaker, and then 20 ul Protein A/G magnetic beads were added and incubated for 2 hours at 4° C. on a shaker. The beads were rinsed using magnetic grate for 5 minutes and repeated 3 times. After that, 1 mL TRIzol reagent was added to the magnetic beads to extract RNAs which were then reverse transcribed into cDNAs. The expression of related genes was detected using real-time quantitative fluorescent PCR with B-actin as the internal reference. The detection of each gene was repeated 3 times, and the result of the expression of each gene is expressed as the relative value to the result of ^m7GpppApG cap.
The intracellular proteins RIG-I and IFIT1 were co-precipitated with the RNAs to which they bound by RNA co-immunoprecipitation. The mRNAs were subjected to reverse transcription and real-time quantitative PCR, and the relative abundance of the mRNAs is proportional to their RIG-I and IFIT1 binding ability.
as §1, with “(Invitrogen) as the transfection reagent” for “(Invitrogen)”, “was” for “was then”

Sequence of T7 RNA polymerase (P00573 whole entry): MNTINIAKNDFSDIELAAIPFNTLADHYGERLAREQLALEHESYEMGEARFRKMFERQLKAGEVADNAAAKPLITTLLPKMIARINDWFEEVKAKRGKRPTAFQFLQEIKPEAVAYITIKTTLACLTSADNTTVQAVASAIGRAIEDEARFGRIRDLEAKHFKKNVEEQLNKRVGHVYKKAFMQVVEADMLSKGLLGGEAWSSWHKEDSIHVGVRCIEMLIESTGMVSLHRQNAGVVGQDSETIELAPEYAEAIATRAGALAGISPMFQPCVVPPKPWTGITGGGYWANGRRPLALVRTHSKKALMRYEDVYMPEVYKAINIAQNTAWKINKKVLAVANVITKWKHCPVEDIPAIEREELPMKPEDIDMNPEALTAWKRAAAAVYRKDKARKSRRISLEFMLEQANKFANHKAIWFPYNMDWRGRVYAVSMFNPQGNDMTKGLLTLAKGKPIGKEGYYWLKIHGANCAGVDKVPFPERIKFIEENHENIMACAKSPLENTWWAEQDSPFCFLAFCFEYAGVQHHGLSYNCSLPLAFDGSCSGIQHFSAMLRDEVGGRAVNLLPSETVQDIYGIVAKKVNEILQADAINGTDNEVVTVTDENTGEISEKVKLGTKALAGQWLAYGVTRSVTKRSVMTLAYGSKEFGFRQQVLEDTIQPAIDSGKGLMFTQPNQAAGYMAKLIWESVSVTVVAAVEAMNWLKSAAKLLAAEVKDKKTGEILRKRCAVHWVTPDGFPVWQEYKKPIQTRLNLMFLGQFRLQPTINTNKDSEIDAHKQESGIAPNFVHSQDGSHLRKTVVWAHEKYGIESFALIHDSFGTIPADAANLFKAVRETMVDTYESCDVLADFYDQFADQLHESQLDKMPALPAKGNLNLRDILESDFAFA

Substance | Capping efficiency [1] | Relative binding ability to RIG ([2]; Example 2) | Relative binding ability to RIG ([2]; Example 3 (IVT at 50° C.))
^m7G2′OmepppA2′O-MOEpG | 88% | 0.69 ± 0.01 | –
^m7G2′OmepppA2′O-ethylpG | 92% | 0.82 ± 0.03 | –
^m7G2′OmepppC2′O-ethylpC | 92% | 0.93 ± 0.08 | –
^m7G3′OmepppA2′O-MOEpG | 89% | 0.78 ± 0.07 | –
^m7G3′OmepppA2′O-MOEpU | 93% | 1.12 ± 0.01 | –
^m7G3′OmepppA2′O-ethylpG | 94% | 0.87 ± 0.11 | –
^m7GAlpha-L-LNApppA2′O-ethyl pG | – | – | 0.52 ± 0.01
^m7GBeta-D-LNApppA2′O-MOEpG | – | – | 0.48 ± 0.02
^m7Gppp(N6-methyladenine)2′O-MOEpG | 84% | 0.77 ± 0.14 | –
^m7GpppA2′Ome pG [reference compound] | 97% | 0.86 ± 0.06 | 0.88 ± 0.11
^m7GpppApG [reference compound] | 98% | 1 ± 0.23 | 1 ± 0.28
